Experiments:
rice POX genes [1] = test: Inducibility of rice peroxidases to ethephon and MeJA (RNA gel blot analysis); format: in vivo, Oryza sativa cv. Nipponbare; conditions: for response of R2151 gene expression to stimuli: R2151 gene (group A1), FIG. 8(d), day 16, compared with control; for expression of R2693, R2329, S11222, prxRPA, R2576, R2184 and C52903 POX genes: leaf blades of 16-day-old seedlings, 1 mM ethephon or 25 μM MeJA solution sprayed onto whole plants, 48 hours, versus leaf blade without stress
Description: Gene expression was analyzed by subjecting total RNAs isolated by the ATA method (Nagy et al., Reference 35) to RNA gel blot analysis (Ausubel et al., Reference 36).
cDNA fragments containing 3′ untranslated regions of 21 rice POX genes indicated by boxes in FIG. 1 were amplified by the PCR method. The amplified fragments were used as probes specific to the respective POX genes for the RNA gel blot analysis.
The above-described RNAs were subjected to electrophoresis, followed by transcription to a membrane (HyBond N, Amersham). The specific probes were allowed to hybridize, followed by washing for 5 min (once) and for 10 min (twice) in 2×SSC containing 0.1% SDS at room temperature, and then three times in 1×SSC containing 0.1% SDS for 15 min each at 65° C. Subsequently, the membrane was subjected to autoradiography at −80° C. using a film for autoradiography (XA OMT, Kodak) overnight or more. The recovered film was analyzed by the BAS2000 Bioimaging analyzer (Fuji Photo Film Co., Ltd.) or Phosphor Imager SI (Molecular Dynamics) in accordance with the manufacturer's instruction. The amount of RNA loaded was confirmed by monitoring the level of ribosome RNA (rRNA) stained by methylene blue. The expression amounts of the POXs were compared with each other with reference to the rRNA levels.
16-day-old seedlings were produced under the conditions described in Example 2. With these seedlings, the inducibility of rice peroxidases to ethephon (an ethylene release factor) and MeJA (a wound information transfer substance) was analyzed. For ethephon stimulus, 1 mM ethephon solution containing 0.05% ethanol was used. For MeJA stimulus, 25 μM MeJA solution containing 0.125% Triton X-100 was used. These solutions were sprayed onto whole plants, and maintained for 48 hours.
RNAs were extracted from the leaf blades of stimulated rice plants in a manner as described in Example 2. For each POX, expression specificity was analyzed. As a control, leaf blade without a stress were used.

rice POX genes [2] = system: rice POX genes; parameters: species or system Oryza sativa cv. Nipponbare
[3] = system: rice blast fungus (M. grisea race(003)); format: in vivo, Magnaporthe grisea; conditions: compatible rice treated with probenazole (100 mg/ml) two days before M. grisea race(003), 1×10^5 spores/ml; untreated compatible rice: days 4 and 5
POX genes = format: in vivo, Oryza sativa cv. Nipponbare; conditions: probenazole-treated rice, before and 2, 3, 4 and 5 days after rice blast fungus treatment; FIG. 24

O=P(O)(O)CCCl [Ethephon, ethephon]
response of R2151 gene expression to stimuli (rice POX genes [1]): reducible responses
expression of R2693, R2329, S11222, prxRPA, R2576, R2184 and C52903 POX genes (rice POX genes [1]): induced expression

CC/C=C\CC1C(=O)CCC1CC(=O)OC (centres unmarked) [MeJA, methyl jasmonate]
response of R2151 gene expression to stimuli (rice POX genes [1]): reducible responses
expression of R2693, R2329, S11222, prxRPA, R2576, R2184 and C52903 POX genes (rice POX genes [1]): induced expression

C[n+]1ccc(-c2cc[n+](C)cc2)cc1 [paraquat, 1,1-dimethyl-4,4-dipyridinium dichloride]
expression of R2329, prxRPA, R2576 and C52903 (rice POX genes [2]): induced
expression of apoplastic (R2329, prx2576 and R2576) and vacuolar (e.g., R2184 and C52903) POXs (rice POX genes [2]): induced the expression

C=CCOC1=NS(=O)(=O)c2ccccc21 [probenazole]
lesion spot formation found on days after rice blast fungus treatment [3]: 2 to 3 days
expression patterns with E2184, R2576, R2693 and R2329 as probes (POX genes): significantly similar to the transition pattern of formation of lesion spots
